Experimental data: the supplement of paper PMC10307832

Tests used:
Assay in all cases: relative viability (nuclei count vs DMSO), 5 days (fraction); higher = more cells survive
[1] = compound: CN1C=C(C2=CC=CC=C21)/C=C\3/C4=C(C=CC=N4)NC3=O + O=C(CCCCCCC(=O)Nc1ccccc1)NO [Vorinostat] (partner 1 µM)
Procedure, shortened: (§1)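 Lung cancer cell lines were pin-tool dosed in 1536-well plates on the day after seeding, with either a lone drug or a fixed anchor-drug dose plus five library-drug doses (not always all listed) in √10 steps. Nuclei were counted on 4× images after 5 days. Relative viability is the ratio of treated-well to vehicle-well nuclei counts, with each value a median of duplicate plates.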

Trametinib + Alpelisib = compound: CC(=O)Nc1cccc(-n2c(=O)n(C3CC3)c(=O)c3c(Nc4ccc(I)cc4F)n(C)c(=O)c(C)c32)c1 [Trametinib] + Cc1nc(NC(=O)N2CCC[C@H]2C(N)=O)sc1-c1ccnc(C(C)(C)C(F)(F)F)c1 [Alpelisib] (partner 2 µM)
Procedure, shortened: as §1

Trametinib + Bortezomib = compound: CC(=O)Nc1cccc(-n2c(=O)n(C3CC3)c(=O)c3c(Nc4ccc(I)cc4F)n(C)c(=O)c(C)c32)c1 [Trametinib] + CC(C)C[C@H](NC(=O)[C@H](Cc1ccccc1)NC(=O)c1cnccn1)B(O)O [Bortezomib] (partner 0.002 µM)
Procedure, shortened: as §1

[2] = compound: CN1C=C(C2=CC=CC=C21)/C=C\3/C4=C(C=CC=N4)NC3=O + Nc1nc2[nH]cc(CCc3ccc(C(=O)N[C@@H](CCC(=O)O)C(=O)O)cc3)c2c(=O)[nH]1 [Pemetrexed] (partner 0.2 µM)
Procedure, shortened: as §1

Cell Line	relative viability ([1]; first compound 0.02 µM)	relative viability ([1]; first compound 0.06325 µM)	relative viability ([1]; first compound 0.2 µM)	relative viability ([1]; first compound 0.6325 µM)	relative viability ([1]; first compound 2 µM)	relative viability (Trametinib + Alpelisib; first compound 0.0025 µM)	relative viability (Trametinib + Alpelisib; first compound 0.007906 µM)	relative viability (Trametinib + Alpelisib; first compound 0.025 µM)	relative viability (Trametinib + Alpelisib; first compound 0.07906 µM)	relative viability (Trametinib + Alpelisib; first compound 0.25 µM)	relative viability (Trametinib + Bortezomib; first compound 0.0025 µM)	relative viability (Trametinib + Bortezomib; first compound 0.007906 µM)	relative viability (Trametinib + Bortezomib; first compound 0.025 µM)	relative viability (Trametinib + Bortezomib; first compound 0.07906 µM)	relative viability (Trametinib + Bortezomib; first compound 0.25 µM)	relative viability ([2]; first compound 0.02 µM)	relative viability ([2]; first compound 0.06325 µM)	relative viability ([2]; first compound 0.2 µM)	relative viability ([2]; first compound 0.6325 µM)	relative viability ([2]; first compound 2 µM)
NCI-H1666	0.902	0.909	1.06	0.926	0.991	0.697	0.501	0.465	0.331	0.306	0.639	0.591	0.499	0.452	0.401	0.896	0.861	0.847	0.765	0.737
COR-L 105	0.845	0.682	0.774	0.793	0.768	0.808	1.03	0.352	0.419	0.389	0.748	0.612	0.389	0.315	0.335	1.07	0.969	1.12	1.28	1.3
LU99A	0.475	0.401	0.508	0.492	0.477	0.571	0.456	0.444	0.262	0.172	1.08	1.21	0.815	0.726	0.407	0.156	0.182	0.176	0.173	0.186
NCI-H596	0.642	0.653	0.484	0.589	0.595	0.34	0.422	0.311	0.371	0.342	0.759	0.892	0.795	1.47	0.474	0.494	0.494	0.527	0.456	0.531
201T	1.04	0.879	1.03	1.04	1.05	1.02	0.914	0.866	0.893	0.765	1.08	1.01	0.942	1.05	0.801	0.31	0.317	0.365	0.342	0.358
HCC-15	0.915	0.824	0.867	0.74	0.706	0.645	0.436	0.275	0.204	0.148	0.946	0.62	0.731	0.492	0.203	0.228	0.211	0.223	0.217	0.211
